From ChEMBL document CHEMBL1201862, “PubChem BioAssay data set” (2004)
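A five-concentration, 48-hour dose response in 96-well plates underlies each endpoint, interpolated linearly between surrounding concentrations. Abbreviation: GI50, concentration required for 50% inhibition of growth.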 Active and inactive are the calls of the source. Rule as the data show it: active = GI50 up to about 1.1 µM and inactive = higher. Starred links: 1 amine or outer side, 2 acyl side, 3 side chain; linkers in the order of their positions; H or OH if unused. Non-standard residues stand in square brackets, D forms with d. Residues, ends and D or L forms follow the SMILES beside them. ξ: configuration not given here. X24 = O=C(C(CC(O)CO)O[*:1])[*:2]; Ile(3ξ) = CCC(C)[C@H](N)C(=O)O; NMeV = CN[C@H](C(=O)O)C(C)C; NMeA = CN[C@@H](C)C(=O)O; βAla = NCCC(=O)O

Key:
Assay in all cases: NCI anticancer screen, dose series, 48 h
ACHN = test system: ACHN
OVCAR-8 = test system: OVCAR-8
K562 = test system: K562
EKVX = test system: EKVX
786-0 = test system: 786-0
OVCAR-3 = test system: OVCAR-3
HT-29 = test system: HT-29
HCC 2998 = test system: HCC 2998
RPMI-8226 = test system: RPMI-8226
DMS-273 = test system: DMS-273
RXF 393 = test system: RXF 393
SK-MEL-2 = test system: SK-MEL-2
MOLT-4 = test system: MOLT-4
HOP-62 = test system: HOP-62
UACC-62 = test system: UACC-62
SF-539 = test system: SF-539
OVCAR-4 = test system: OVCAR-4

Measured: GI50

CC(=O)O/N=C/c1cc2c(cc1Br)OCO2
inactive: ACHN > 349 µM | OVCAR-8 > 349 µM | K562 > 349 µM | EKVX > 349 µM | 786-0 > 349 µM | OVCAR-3 137 µM | HT-29 > 349 µM | HCC 2998 > 349 µM | RPMI-8226 > 349 µM | DMS-273 > 349 µM | RXF 393 > 349 µM | SK-MEL-2 > 349 µM | MOLT-4 > 349 µM | HOP-62 > 349 µM | UACC-62 > 349 µM

CCC(C)[C@@H]1NC(=O)[C@@H]2CCCN2C(=O)C(CC(O)CO)OC(=O)CCNC(=O)[C@H](C)N(C)C(=O)[C@H](C(C)C)N(C)C1=O (stereo not given in full) (cyclo([Ile(3ξ)][NMeV][NMeA][βAla][X24]P))
inactive: OVCAR-8 > 100 µM | K562 > 100 µM | 786-0 > 100 µM | OVCAR-3 > 100 µM | HT-29 > 100 µM | RPMI-8226 > 100 µM | DMS-273 > 100 µM | SF-539 > 100 µM | RXF 393 > 100 µM | SK-MEL-2 > 100 µM | MOLT-4 43.1 µM | HOP-62 > 100 µM | UACC-62 > 100 µM | OVCAR-4 > 100 µM

CCOc1ccc2c(c1)[n+]([O-])c(-c1ccccc1Cl)c(N)[n+]2[O-]
inactive: ACHN > 100 µM | OVCAR-8 > 100 µM | K562 > 100 µM | EKVX > 100 µM | 786-0 > 100 µM | OVCAR-3 > 100 µM | HT-29 > 100 µM | DMS-273 > 100 µM | SF-539 > 100 µM | RXF 393 > 100 µM | SK-MEL-2 > 100 µM | MOLT-4 74 µM | HOP-62 > 100 µM | OVCAR-4 > 100 µM

COc1c2c(c3c(c1C1OC(C)[C@@H](C)O1)CC(C)(C)O3)C(=O)c1ccccc1C2=O (stereo not given in full)
inactive: ACHN 40.5 µM | OVCAR-8 34.3 µM | K562 25.4 µM | EKVX > 100 µM | 786-0 72.9 µM | OVCAR-3 38.2 µM | HT-29 31.6 µM | HCC 2998 76.2 µM | RPMI-8226 20.6 µM | DMS-273 24.2 µM | SF-539 > 100 µM | RXF 393 28 µM | SK-MEL-2 > 100 µM | HOP-62 > 100 µM | UACC-62 34.9 µM | OVCAR-4 42 µM

O=C1NC2C=CN(Cc3ccccc3)C=C2C(=O)N2CCCC12 (stereo not given)
inactive: ACHN > 100 µM | OVCAR-8 > 100 µM | EKVX > 100 µM | 786-0 > 100 µM | OVCAR-3 > 100 µM | HT-29 > 100 µM | HCC 2998 > 100 µM | DMS-273 > 100 µM | SF-539 > 100 µM | RXF 393 > 100 µM | SK-MEL-2 > 100 µM | MOLT-4 > 100 µM | HOP-62 > 100 µM | UACC-62 > 100 µM | OVCAR-4 > 100 µM

CC(=O)O[C@H]1CC[C@@]2(C)C(=CC[C@@H]3C2CC[C@]2(C)Nc4c(cnn4-c4ccccc4)CC32)C1 (stereo not given in full)
inactive: ACHN 13.8 µM | OVCAR-8 29.4 µM | EKVX 44.6 µM | 786-0 4.73 µM | OVCAR-3 48.2 µM | HT-29 4.82 µM | HCC 2998 16 µM | RPMI-8226 2.09 µM | DMS-273 4.24 µM | SF-539 2.51 µM | RXF 393 3.53 µM | SK-MEL-2 54.6 µM | MOLT-4 2.07 µM | HOP-62 12.4 µM | UACC-62 18.7 µM | OVCAR-4 14.9 µM

N#C/C(=N\c1ccccc1N(C(=O)c1ccccc1)C(=O)c1ccccc1)c1ccccc1
inactive: ACHN > 60.5 µM | OVCAR-8 10.3 µM | K562 3.49 µM | EKVX > 100 µM | 786-0 > 91.6 µM | OVCAR-3 8.91 µM | HT-29 15.3 µM | HCC 2998 > 68.4 µM | RPMI-8226 5.97 µM | DMS-273 3.83 µM | SF-539 > 100 µM | SK-MEL-2 42.1 µM | MOLT-4 3.82 µM | HOP-62 > 30.7 µM | UACC-62 35.9 µM | OVCAR-4 32.2 µM

COc1cc(C2C(C(=O)O)=C(COC(C)=O)Oc3cc4c(cc32)OCO4)cc(OC)c1OC(C)=O (stereo not given)
inactive: ACHN > 100 µM | OVCAR-8 > 100 µM | K562 > 100 µM | EKVX > 100 µM | 786-0 > 100 µM | OVCAR-3 > 100 µM | HT-29 > 100 µM | RPMI-8226 > 100 µM | DMS-273 > 100 µM | RXF 393 > 100 µM | SK-MEL-2 > 100 µM | MOLT-4 > 100 µM | HOP-62 > 100 µM | UACC-62 > 100 µM | OVCAR-4 > 100 µM

COc1cc2c3c(c1OC)-c1ccccc1C(C(O)c1ccccc1)C3N(C)CC2 (stereo not given)
inactive: ACHN 39.1 µM | OVCAR-8 69.3 µM | K562 25.9 µM | EKVX 90.4 µM | 786-0 30.7 µM | OVCAR-3 34.8 µM | HT-29 24.7 µM | HCC 2998 17.7 µM | RPMI-8226 21.9 µM | DMS-273 25.5 µM | SF-539 21.4 µM | RXF 393 12.4 µM | SK-MEL-2 28.1 µM | MOLT-4 24.3 µM | HOP-62 24.3 µM | UACC-62 7.76 µM

COc1cc(C)c(C(=O)/C=C/c2cc(OC)c(O)c(OC)c2)cc1O
inactive: ACHN 32.8 µM | OVCAR-8 30.2 µM | K562 19.4 µM | EKVX 32.4 µM | 786-0 19.2 µM | OVCAR-3 25.2 µM | HT-29 30.6 µM | HCC 2998 16.4 µM | RPMI-8226 > 100 µM | DMS-273 15.5 µM | SF-539 29.6 µM | SK-MEL-2 18.9 µM | MOLT-4 > 100 µM | HOP-62 22.7 µM | UACC-62 17.7 µM | OVCAR-4 21 µM

O=C(O)COc1ccc(O)c2c1C(=O)CCCC2=O
inactive: ACHN > 100 µM | OVCAR-8 > 100 µM | K562 > 100 µM | EKVX > 100 µM | 786-0 > 100 µM | OVCAR-3 > 100 µM | HT-29 > 100 µM | HCC 2998 > 100 µM | RPMI-8226 > 100 µM | DMS-273 > 100 µM | SF-539 > 100 µM | SK-MEL-2 > 100 µM | MOLT-4 > 100 µM | HOP-62 > 100 µM | UACC-62 > 100 µM | OVCAR-4 > 100 µM

O=C(O)c1c2c(cc3c(=O)cc(-c4ccccc4)oc13)CCCC2
inactive: ACHN > 100 µM | OVCAR-8 > 100 µM | K562 > 100 µM | EKVX > 100 µM | 786-0 > 100 µM | OVCAR-3 > 100 µM | HT-29 > 100 µM | HCC 2998 > 100 µM | RPMI-8226 > 100 µM | DMS-273 > 100 µM | SF-539 > 100 µM | SK-MEL-2 > 100 µM | MOLT-4 > 100 µM | HOP-62 > 100 µM | UACC-62 > 100 µM | OVCAR-4 > 100 µM
